# Molecular target: human GPR40 receptor (Homo sapiens, UniProt O14842)
# Assay: IP1 accumulation measurements using the IPOne assay system
# Type: cell-based
# Conditions: 1321N1 cells stably expressing human GPR40; stimulation 1 h at 37° C.
# Description: IP1 accumulation measurements using the IPOne assay system—1321N1 cells stably expressing human GPR40 receptor (Euroscreen, Belgium) are seeded 24 h before the assay in white 384-well plates in culture medium containing 10% FCS, 1% Na-Pyruvate and 400 μg/mL G418. IP1 is assayed according to the manufacturer's description (Cisbio Bioassays, France). In brief, the assay is started by substitution of the culture medium by stimulation buffer (Hepes 10 mM, CaCl2 1 mM, MgCl2 0.5 mM, KCl 4.2 mM, NaCl 146 mM, glucose 5.5 mM and LiCl 50 mM, pH 7.4). Cells are stimulated for 1 h at 37° C., 5% CO2 by addition of the compounds that are diluted in stimulation buffer containing LiCl. Assays are stopped by adding HTRF-conjugates (IP1-d2 and Anti-IP1 cryptate Tb) and lysis buffer, provided by the manufacturer. After an incubation time of 1 h at room temperature plates are measured using an EnVision™, Perkin Elmer. The obtained fluorescence ratios at 665/615 […] are then used to calculate the pEC50 values using Assay Explorer 3.3 Software (Accelrys, Inc.) by interpolation using an IP1 reference curve and subsequent sigmoidal curve fitting allowing for a variable hill slope.
# Chain of human GPR40 receptor (O14842 whole entry): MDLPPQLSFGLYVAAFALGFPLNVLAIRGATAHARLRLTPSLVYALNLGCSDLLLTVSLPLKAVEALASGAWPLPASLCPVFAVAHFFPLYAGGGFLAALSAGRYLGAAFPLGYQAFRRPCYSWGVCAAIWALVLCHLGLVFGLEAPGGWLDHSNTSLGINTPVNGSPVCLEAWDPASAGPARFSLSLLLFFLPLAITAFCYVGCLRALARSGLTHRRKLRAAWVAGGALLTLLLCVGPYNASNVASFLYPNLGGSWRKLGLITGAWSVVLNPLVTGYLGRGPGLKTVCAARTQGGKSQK
row,Structure (SMILES),EC50 [nM]
1,"O=C(O)C[C@@H]1COc2cc(O[C@@H]3CCc4c(Oc5ccccn5)ccc(F)c43)ccc21 [Example 7, {(S)-6-[(R)-7-Fluoro-4-pyrid-2-yloxy-indan-1-yloxy]-2,3-dihydro-benzofuran-3-yl}-acetic acid]",32
2,"Cc1cc(C#N)ccc1Oc1ccc(F)c2c1CC[C@H]2Oc1ccc2c(c1)OC[C@H]2CC(=O)O [Example 24, {(S)-6-[(R)-4-(4-Cyano-2-methyl-phenoxy)-7-fluoro-indan-1-yloxy]-2,3-dihydro-benzofuran-3-yl}-acetic acid]",3
3,"CS(=O)(=O)c1ccc(Oc2ccc(F)c3c2CC[C@H]3Oc2ccc3c(c2)OC[C@H]3CC(=O)O)cc1 [Example 18, {(S)-6-[(R)-7-Fluoro-4-(4-methylsulfonyl-phenoxy)-indan-1-yloxy]-2,3-dihydro-benzofuran-3-yl}-acetic acid]",41
4,"Cn1ccc2cc(Oc3ccc(F)c4c3CC[C@H]4Oc3ccc4c(c3)OC[C@H]4CC(=O)O)ccc21 [Example 38, {(S)-6-[(R)-7-Fluoro-4-(1-methyl-1H-indol-5-yloxy)-indan-1-yloxy]-2,3-dihydro-benzofuran-3-yl}-acetic acid]",6
5,"COc1cc(Oc2ccc(F)c3c2CC[C@H]3Oc2ccc3c(c2)OC[C@H]3CC(=O)O)ccn1 [Example 36, {(S)-6-[(R)-7-Fluoro-4-(2-methoxy-pyrid-4-yloxy)-indan-1-yloxy]-2,3-dihydro-benzofuran-3-yl}-acetic acid]",4
6,"Cc1cc(Oc2ccc(F)c3c2CC[C@H]3Oc2ccc3c(c2)OC[C@H]3CC(=O)O)cc(C)c1C#N [Example 49, {(S)-6-[(R)-4-(4-Cyano-3,5-dimethyl-phenoxy)-7-fluoro-indan-1-yloxy]-2,3-dihydro-benzofuran-3-yl}-acetic acid]",12
7,"COc1ccc(Oc2ccc(F)c3c2CC[C@H]3Oc2ccc3c(c2)OC[C@H]3CC(=O)O)nc1 [Example 44, {(S)-6-[(R)-7-Fluoro-4-(5-methoxy-pyrid-2-yloxy)-indan-1-yloxy]-2,3-dihydro-benzofuran-3-yl}-acetic acid]",19
8,"Cn1cnc2cc(Oc3ccc(F)c4c3CC[C@H]4Oc3ccc4c(c3)OC[C@H]4CC(=O)O)ccc21 [Example 42, {(S)-6-[(R)-7-Fluoro-4-(1-methyl-1H-benzoimidazol-5-yloxy)-indan-1-yloxy]-2,3-dihydro-benzofuran-3-yl}-acetic acid]",891
9,"COc1ccc(Oc2ccc(F)c3c2CC[C@H]3Oc2ccc3c(c2)OC[C@H]3CC(=O)O)c(F)c1 [Example 56, {(S)-6-[(R)-4-(2-Fluoro-4-methoxy-phenoxy)-7-fluoro-indan-1-yloxy]-2,3-dihydro-benzofuran-3-yl}-acetic acid]",6
10,"O=C(O)C[C@@H]1COc2cc(O[C@@H]3CCc4c(Oc5ccccc5)ccc(F)c43)ccc21 [Example 1, {(S)-6-[(R)-7-Fluoro-4-phenoxy-indan-1-yloxy]-2,3-dihydro-benzofuran-3-yl}-acetic acid]",4
11,"COc1ccc(Oc2ccc(F)c3c2CC[C@H]3Oc2ccc3c(c2)OC[C@H]3CC(=O)O)nn1 [Example 16, {(S)-6-[(R)-7-Fluoro-4-(6-methoxy-pyridazin-3-yloxy)-indan-1-yloxy]-2,3-dihydro-benzofuran-3-yl}-acetic acid]",138
12,"Cc1nccc(Oc2ccc(F)c3c2CC[C@H]3Oc2ccc3c(c2)OC[C@H]3CC(=O)O)n1 [Example 9, {(S)-6-[(R)-7-Fluoro-4-(2-methyl-pyrimid-4-yloxy)-indan-1-yloxy]-2,3-dihydro-benzofuran-3-yl}-acetic acid]",155
13,"Cc1noc2ccc(Oc3ccc(F)c4c3CC[C@H]4Oc3ccc4c(c3)OC[C@H]4CC(=O)O)cc12 [Example 60, {(S)-6-[(R)-7-Fluoro-4-(3-methyl-benzo[d]isoxazol-5-yloxy)-indan-1-yloxy]-2,3-dihydro-benzofuran-3-yl}-acetic acid]",3
14,"O=C(O)C[C@@H]1COc2cc(O[C@@H]3CCc4c(Oc5ncc6ccccc6n5)ccc(F)c43)ccc21 [Example 43, {(S)-6-[(R)-7-Fluoro-4-(Quinazolin-2-yloxy)-indan-1-yloxy]-2,3-dihydro-benzofuran-3-yl}-acetic acid]",34
15,"N#Cc1ccc(Oc2ccc(F)c3c2CC[C@H]3Oc2ccc3c(c2)OC[C@H]3CC(=O)O)cc1 [Example 8, {(S)-6-[(R)-4-(4-Cyano-phenoxy)-7-fluoro-indan-1-yloxy]-2,3-dihydro-benzofuran-3-yl}-acetic acid]",4
16,"Cc1cc(Oc2ccc(F)c3c2CC[C@H]3Oc2ccc3c(c2)OC[C@H]3CC(=O)O)ccc1C#N [Example 21, {(S)-6-[(R)-4-(4-Cyano-3-methyl-phenoxy)-7-fluoro-4-indan-1-yloxy]-2,3-dihydro-benzofuran-3-yl}-acetic acid]",4
17,"O=C(O)C[C@@H]1COc2cc(O[C@@H]3CCc4c(Oc5ncc(F)cn5)ccc(F)c43)ccc21 [Example 33, {(S)-6-[(R)-7-Fluoro-4-(5-fluoro-pyrimid-2-yloxy)-indan-1-yloxy]-2,3-dihydro-benzofuran-3-yl}-acetic acid]",31
18,"Cc1nc2cc(Oc3ccc(F)c4c3CC[C@H]4Oc3ccc4c(c3)OC[C@H]4CC(=O)O)ccc2o1 [Example 55, {(S)-6-[(R)-7-Fluoro-4-(2-methyl-benzoxazol-5-yloxy)-indan-1-yloxy]-2,3-dihydro-benzofuran-3-yl}-acetic acid]",6
19,"N#Cc1ccc(F)cc1Oc1ccc(F)c2c1CC[C@H]2Oc1ccc2c(c1)OC[C@H]2CC(=O)O [Example 30, {(S)-6-[(R)-4-(2-Cyano-5-fluoro-phenoxy)-7-fluoro-indan-1-yloxy]-2,3-dihydro-benzofuran-3-yl}-acetic acid]",11
20,"Cc1ccccc1Oc1ccc(F)c2c1CC[C@H]2Oc1ccc2c(c1)OC[C@H]2CC(=O)O [Example 4, {(S)-6-[(R)-7-Fluoro-4-(2-methyl-phenoxy)-indan-1-yloxy]-2,3-dihydro-benzofuran-3-yl}-acetic acid]",6
21,"Cc1nc2ccc(Oc3ccc(F)c4c3CC[C@H]4Oc3ccc4c(c3)OC[C@H]4CC(=O)O)cc2s1 [Example 59, {(S)-6-[(R)-7-Fluoro-4-(2-methyl-benzothiazol-6-yloxy)-indan-1-yloxy]-2,3-dihydro-benzofuran-3-yl}-acetic acid]",5
22,"O=C(O)C[C@@H]1COc2cc(O[C@@H]3CCc4c(Oc5ccc(C(F)(F)F)cn5)ccc(F)c43)ccc21 [Example 14, {(S)-6-[(R)-7-Fluoro-4-(5-trifluoromethyl-pyrid-2-yloxy)-indan-1-yloxy]-2,3-dihydro-benzofuran-3-yl}-acetic acid]",26
23,"O=C(O)C[C@@H]1COc2cc(O[C@@H]3CCc4c(Oc5ccc6ncccc6c5)ccc(F)c43)ccc21 [Example 20, {(S)-6-[(R)-7-Fluoro-4-Quinolin-6-yloxy-indan-1-yloxy]-2,3-dihydro-benzofuran-3-yl}-acetic acid]",6
24,"Cc1c(Oc2ccc(F)c3c2CC[C@H]3Oc2ccc3c(c2)OC[C@H]3CC(=O)O)ccc2c1cnn2C [Example 53, {(S)-6-[(R)-7-Fluoro-4-(1,4-dimethyl-1H-indazol-5-yloxy)-indan-1-yloxy]-2,3-dihydro-benzofuran-3-yl}-acetic acid]",69

# Reference: patent US8815864B2, “Indanyloxydihydrobenzofuranylacetic acids” (Boehringer Ingelheim International GmbH, priority 2012, dated 2014)
